Assay results as given in patent publication US20260234630A1, “Methods for Treating Multiple Myeloma” (Celgene Corporation, priority 2022, published 2026).

Legend:
Type in all cases: cell-based
[1] = tested on: Aiolos at UHRF1 promoter; test: ChIP-qPCR of Aiolos occupancy at UHRF1 gene; details: H929 cells, 1 μM POM, 24 hr
Method: (§1) FIG. 2A-2E. UHRF1 expression is positively regulated by Ikaros and Aiolos in IMiDs sensitive MM cells. (2A) Western blot analysis protein expression of UHRF1, Ikaros, Aiolos, ZFP91 and Cereblon expression in control [shLuciferase (shLuc)] and cereblon knockdown (shCRBN) H929 cells treated with DMSO and 1 μM POM for 3 days. GAPDH, loading control. Arrow head, UHRF1. (2B) qRT-PCR analysis of UHRF1 gene expression levels in cells as in (2A). Data was normalized to ACTB. Error bars represent the SEM of technical duplicates. *** P<0.001 (Two-tailed unpaired Student's t-test). […]
(§2) ChIP-qPCR was performed using ChIP-IT Express Enzymatic kit (Active Motif) according to the manufacture manual with some modifications. […] DNA was purified using a PCR purification kit (Qiagen) and analyzed by qPCR using the Power SYBR Green PCR Master Mix.
(§3) Procedures afterward were performed according to the manufacture manual. Eluted DNA was purified using a PCR purification kit (Qiagen) and analyzed by quantitative real-time PCR on the Viia 7 Real Time PCR System using the Power SYBR Green PCR master mix (Applied Biosystems). Statistical differences were calculated using a […] unpaired Student's t-test.

[2] = tested on: H3 and H3K27ac; test: Western blot of global histone H3 and H3K27ac levels; details: H929 and MM1.S cells, 1 μM POM, 24 hr
Method: FIG. 7A-7B. UHRF1 expression is positively regulated by Ikaros, Aiolos and ZFP91 in MM1.S cells. (7A) Western blot analysis protein expression of UHRF1, Ikaro and Aiolos in stably transduced MM1.S cells after Dox induction (0, 20, or 50 ng/ml) for 3 days of non-target shRNA (shNT) or shRNAs targeting Ikaros (shIKZF1) or Aiolos (shIKZF3). (7B) Western blot analysis histone H3 and H3K27ac levels from H929 and MM1.S cells treated with DMSO or 1 μM POM for 24 hr.
Cells were lysed with cell lysis buffer (50 mM TrisHCl pH7.4, 250 mM NaCl, 0.5% Triton X100, 10% glycerol) supplemented with protease inhibitor cocktail. Cell lysates were subjected to sonication to breakdown nuclei and reduce viscosity caused by released genomic DNA. The protein concentration was measured by a Bradford Protein Assay (Bio-Rad). Samples were mixed with SDS sample buffer at 95° C. for 5 minutes. Whole cell lysates were resolved on NuPAGE™ 4-12% Bis-Tris Midi Protein Gels (Invitrogen) and transferred onto nitrocellulose membranes, which were then subjected to blocking in Intercept (TBS) Blocking Buffer (LI-COR). Proteins of interested were detected incubation with primary antibodies listed below at 4° C. overnight. Then the membrane was incubated with either IRDye 680RD goat anti-Mouse IgG (H+L) or IRDye 800CW goat anti-Rabbit IgG (H+L) (1:10,000; LI-COR). Bends were visualized by Odyssey Imaging System (LI-COR).

[3] = tested on: H3K27ac at UHRF1 TSS; test: ChIP-qPCR of H3K27ac occupancy at UHRF1 gene; details: H929 and MM1.S cells, 1 μM POM, 24 hr
Method: as §1, §2, §3

In the case of `Nc1cccc2c1C(=O)N(C1CCC(=O)NC1=O)C2=O` (stereo not drawn) [POM, pomalidomide], the “UHRF1 promoter occupancy of Aiolos” value [1] is reported as “drastically reduced”, the “global levels of H3 and H3K27ac” value [2] is reported as “not affected” and the “H3K27ac level at the UHRF1 TSS” value [3] is reported as “drastically reduced”.
